From patent publication US20150148234A1, “HERBICIDE-RESISTANT SUNFLOWER PLANTS WITH MULTIPLE HERBICIDE RESISTANT ALLELES OF AHASL1 AND METHODS OF USE” (NIDERA S.A., priority 2013, published 2015)

Experiments:
[1] = tested on: sunflower entry 1-hybrid (WT × IMI restorer, A205V hetero); experiment: field phytotoxicity trial North Dakota 2006 (Example 3); assay type: in vivo
Experimental: (§1) • Spray volume: 10 gallons per acre (GPA) (or 100 liters/ha) for backpack sprayer or 20 GPA (or 200 liters/ha) for tractor mounted boom • Growth Stage at Herbicide Application: 2-4 leaves • Entry 15 (WT Maintainer line) was left unsprayed in all treatment blocks.
(§2) Phytotoxicity ratings were assessed at 7 and 21 days following herbicide application.
(§3) The data was subjected to an ANOVA analysis and the means from the 3 repetitions are presented in Table 7 (phytotoxicity at 7 days post-treatment) and Table 8 (phytotoxicity at 21 days post-treatment).

[2] = tested on: sunflower entry 10-hybrid (IMI CMS × GM40 restorer, A205V/A122T hetero/double); experiment: as above; assay type: in vivo
Experimental: as §1, §2, §3

[3] = tested on: sunflower entry 11-hybrid (GM40 CMS × IMI restorer, A205V/A122T hetero/double); experiment: as above; assay type: in vivo
Experimental: as §1, §2, §3

[4] = tested on: sunflower entry 12-hybrid (IMI CMS × GM40 restorer, A205V/A122T hetero/double); experiment: as above; assay type: in vivo
Experimental: as §1, §2, §3

[5] = tested on: sunflower entry 13-hybrid (GM40 CMS × GM40 restorer, A122T homo); experiment: as above; assay type: in vivo
Experimental: as §1, §2, §3

[6] = tested on: sunflower entry 14-hybrid (GM40 CMS × GM40 restorer, A122T homo); experiment: as above; assay type: in vivo
Experimental: as §1, §2, §3

[7] = tested on: sunflower entry 15-hybrid (WT × GM40 restorer, A122T hetero); experiment: as above; assay type: in vivo
Experimental: as §1, §2, §3

[8] = tested on: sunflower entry 16-hybrid (WT × GM40 restorer, A122T hetero); experiment: as above; assay type: in vivo
Experimental: as §1, §2, §3

[9] = tested on: sunflower entry 3-hybrid (WT × IMI restorer, A205V hetero); experiment: as above; assay type: in vivo
Experimental: as §1, §2, §3

[10] = tested on: sunflower entry 4-line (IMI Restorer, A205V homo); experiment: as above; assay type: in vivo
Experimental: as §1, §2, §3

[11] = tested on: sunflower entry 6-hybrid (IMI CMS × IMI restorer, A205V homo); experiment: as above; assay type: in vivo
Experimental: as §1, §2, §3

[12] = tested on: sunflower entry 7-hybrid (WT-CMS × IMI restorer, A205V hetero); experiment: as above; assay type: in vivo
Experimental: as §1, §2, §3

[13] = tested on: sunflower entry 8-hybrid (WT × GM40 restorer, A122T hetero); experiment: as above; assay type: in vivo
Experimental: as §1, §2, §3

[14] = tested on: sunflower entry 9-line (GM40 restorer, A122T homo); experiment: as above; assay type: in vivo
Experimental: as §1, §2, §3

[15] = tested on: AHAS enzyme of A122T homozygous hybrid (cmsGM40 × R733); experiment: AHAS enzyme activity assay, Set 1; assay type: biochemical, sunflower; details: 100 μM, Set 1 (FIG. 13)
Experimental: (§4) Twelve greenhouse grown sunflower plants from each of the lines depicted in Table 21 were bulked and subjected to an AHAS enzyme activity assay via the method of Singh et al. (1988) Anal. Biochem. 171:173-179. Each activity assay was repeated twice. Due to the large number of samples, the experiment was split into two sets (Table 21).
(§5) Young, actively growing leaves, from four week old plantlets, were ground in a mortar and pestle with liquid N2 and extracted with a buffer composed of 100 mM Pyruvate, 200 mM KH2PO4, 20 mM MgCl2, 2 mM thiamine pyrophosphate and […]. Plant extracts were then spun through a 10 mL Zeba™ TM desalt spin column (Pierce #89893) as per the manufacturer's recommendation. The inhibition assay was performed as described by Singh et al. (1988) Anal. Biochem. 171:173-179. Assays were conducted in a 96-well format. Fifty μl of inhibitor was added to each well containing 50 μl of soluble protein extract to give final concentrations of 0.78, 1.56, 3.125, 6.25, 12.5, 25, 50 and 100 μM imazamox or 0.78, 1.56, 3.125, 6.25, 12.5, 25, 50 and 100 μM imazapyr. Zero herbicide controls were also included for each line. Reactions were processed as outlined by Singh et al. (1988) Anal. Biochem. 171:173-179. Absorbance was measured at 530 nm. AHAS activity, expressed as the mean of the absorbance values for each treatment, was presented as a percentage of the mean of the zero-herbicide controls.

[16] = tested on: AHAS enzyme of A122T/A205V heterozygous hybrid (IA9 × R733); experiment: AHAS enzyme activity assay, Set 1; assay type: biochemical, sunflower; details: 100 μM, Set 1 (FIG. 13)
Experimental: as §4, §5

[17] = tested on: AHAS enzyme of A205V homozygous hybrid (IA9 × RHA426); experiment: AHAS enzyme activity assay, Set 1; assay type: biochemical, sunflower; details: A205V homozygous hybrids; 100 μM; Set 1 (FIG. 13)
Experimental: as §4, §5

[18] = 7 DAT, 50 g ai/ha imazamox + 0.25% NIS
[19] = 7 DAT, 100 g ai/ha imazamox + 0.25% NIS
[20] = 7 DAT, 200 g ai/ha imazamox + 0.25% NIS
[21] = 21 DAT, 50 g ai/ha imazamox + 0.25% NIS
[22] = 21 DAT, 100 g ai/ha imazamox + 0.25% NIS
[23] = 21 DAT, 200 g ai/ha imazamox + 0.25% NIS
[24] = 7 DAT, 160 g ai/ha imazapyr + 0.25% NIS
[25] = 21 DAT, 160 g ai/ha imazapyr + 0.25% NIS

## COCc1cnc(C2=NC(C)(C(C)C)C(=O)N2)c(C(=O)O)c1 (stereo not shown) [imazamox]
[1]; [18]
  Phytotoxicity Rating (% Crop Injury): 8.3%
[1]; [19]
  Phytotoxicity Rating (% Crop Injury): 35.0%
[1]; [20]
  Phytotoxicity Rating (% Crop Injury): 48.3%
[1]; [21]
  Phytotoxicity Rating (% Crop Injury): 6.7%
[1]; [22]
  Phytotoxicity Rating (% Crop Injury): 25.0%
[1]; [23]
  Phytotoxicity Rating (% Crop Injury): 73.3%
[2]; [18]
  Phytotoxicity Rating (% Crop Injury): 3.3%
[2]; [19]
  Phytotoxicity Rating (% Crop Injury): 3.3%
[2]; [20]
  Phytotoxicity Rating (% Crop Injury): 10.0%
[2]; [21]
  Phytotoxicity Rating (% Crop Injury): 0.0%
[2]; [22]
  Phytotoxicity Rating (% Crop Injury): 0.0%
[2]; [23]
  Phytotoxicity Rating (% Crop Injury): 1.7%
[3]; [18]
  Phytotoxicity Rating (% Crop Injury): 0.0%
[3]; [19]
  Phytotoxicity Rating (% Crop Injury): 3.3%
[3]; [20]
  Phytotoxicity Rating (% Crop Injury): 11.7%
[3]; [21]
  Phytotoxicity Rating (% Crop Injury): 0.0%
[3]; [22]
  Phytotoxicity Rating (% Crop Injury): 0.0%
[3]; [23]
  Phytotoxicity Rating (% Crop Injury): 3.3%
[4]; [18]
  Phytotoxicity Rating (% Crop Injury): 10.0%
[4]; [19]
  Phytotoxicity Rating (% Crop Injury): 10.0%
[4]; [20]
  Phytotoxicity Rating (% Crop Injury): 11.7%
[4]; [21]
  Phytotoxicity Rating (% Crop Injury): 3.3%
[4]; [22]
  Phytotoxicity Rating (% Crop Injury): 3.3%
[4]; [23]
  Phytotoxicity Rating (% Crop Injury): 3.3%
[5]; [18]
  Phytotoxicity Rating (% Crop Injury): 3.3%
[5]; [19]
  Phytotoxicity Rating (% Crop Injury): 5.0%
[5]; [20]
  Phytotoxicity Rating (% Crop Injury): 10.0%
[5]; [21]
  Phytotoxicity Rating (% Crop Injury): 0.0%
[5]; [22]
  Phytotoxicity Rating (% Crop Injury): 1.7%
[5]; [23]
  Phytotoxicity Rating (% Crop Injury): 3.3%
[6]; [18]
  Phytotoxicity Rating (% Crop Injury): 5.0%
[6]; [19]
  Phytotoxicity Rating (% Crop Injury): 6.7%
[6]; [20]
  Phytotoxicity Rating (% Crop Injury): 11.7%
[6]; [21]
  Phytotoxicity Rating (% Crop Injury): 0.0%
[6]; [22]
  Phytotoxicity Rating (% Crop Injury): 3.3%
[6]; [23]
  Phytotoxicity Rating (% Crop Injury): 5.0%
[7]; [18]
  Phytotoxicity Rating (% Crop Injury): 10.0%
[7]; [19]
  Phytotoxicity Rating (% Crop Injury): 11.7%
[7]; [20]
  Phytotoxicity Rating (% Crop Injury): 16.7%
[7]; [21]
  Phytotoxicity Rating (% Crop Injury): 6.7%
[7]; [22]
  Phytotoxicity Rating (% Crop Injury): 11.7%
[7]; [23]
  Phytotoxicity Rating (% Crop Injury): 30.0%
[8]; [18]
  Phytotoxicity Rating (% Crop Injury): 10.0%
[8]; [19]
  Phytotoxicity Rating (% Crop Injury): 15.0%
[8]; [20]
  Phytotoxicity Rating (% Crop Injury): 23.3%
[8]; [21]
  Phytotoxicity Rating (% Crop Injury): 6.7%
[8]; [22]
  Phytotoxicity Rating (% Crop Injury): 16.7%
[8]; [23]
  Phytotoxicity Rating (% Crop Injury): 31.7%
[9]; [18]
  Phytotoxicity Rating (% Crop Injury): 11.7%
[9]; [19]
  Phytotoxicity Rating (% Crop Injury): 46.7%
[9]; [20]
  Phytotoxicity Rating (% Crop Injury): 60.0%
[9]; [21]
  Phytotoxicity Rating (% Crop Injury): 11.7%
[9]; [22]
  Phytotoxicity Rating (% Crop Injury): 46.7%
[9]; [23]
  Phytotoxicity Rating (% Crop Injury): 76.7%
[10]; [18]
  Phytotoxicity Rating (% Crop Injury): 6.7%
[10]; [19]
  Phytotoxicity Rating (% Crop Injury): 6.7%
[10]; [20]
  Phytotoxicity Rating (% Crop Injury): 18.3%
[10]; [21]
  Phytotoxicity Rating (% Crop Injury): 5.0%
[10]; [22]
  Phytotoxicity Rating (% Crop Injury): 6.7%
[10]; [23]
  Phytotoxicity Rating (% Crop Injury): 15.0%
[11]; [18]
  Phytotoxicity Rating (% Crop Injury): 5.0%
[11]; [19]
  Phytotoxicity Rating (% Crop Injury): 8.3%
[11]; [20]
  Phytotoxicity Rating (% Crop Injury): 26.7%
[11]; [21]
  Phytotoxicity Rating (% Crop Injury): 0.0%
[11]; [22]
  Phytotoxicity Rating (% Crop Injury): 3.3%
[11]; [23]
  Phytotoxicity Rating (% Crop Injury): 21.7%
[12]; [18]
  Phytotoxicity Rating (% Crop Injury): 13.3%
[12]; [19]
  Phytotoxicity Rating (% Crop Injury): 43.3%
[12]; [20]
  Phytotoxicity Rating (% Crop Injury): 56.7%
[12]; [21]
  Phytotoxicity Rating (% Crop Injury): 3.3%
[12]; [22]
  Phytotoxicity Rating (% Crop Injury): 40.0%
[12]; [23]
  Phytotoxicity Rating (% Crop Injury): 78.3%
[13]; [18]
  Phytotoxicity Rating (% Crop Injury): 13.3%
[13]; [19]
  Phytotoxicity Rating (% Crop Injury): 13.3%
[13]; [20]
  Phytotoxicity Rating (% Crop Injury): 25.0%
[13]; [21]
  Phytotoxicity Rating (% Crop Injury): 6.7%
[13]; [22]
  Phytotoxicity Rating (% Crop Injury): 11.7%
[13]; [23]
  Phytotoxicity Rating (% Crop Injury): 28.3%
[14]; [18]
  Phytotoxicity Rating (% Crop Injury): 1.7%
[14]; [19]
  Phytotoxicity Rating (% Crop Injury): 5.0%
[14]; [20]
  Phytotoxicity Rating (% Crop Injury): 10.0%
[14]; [21]
  Phytotoxicity Rating (% Crop Injury): 0.0%
[14]; [22]
  Phytotoxicity Rating (% Crop Injury): 0.0%
[14]; [23]
  Phytotoxicity Rating (% Crop Injury): 3.3%
[15]
  AHAS activity, % of untreated control: 69%
[16]
  AHAS activity, % of untreated control: 59%
[17]
  AHAS activity, % of untreated control: 36%

## CC(C)C1(C)N=C(c2ncccc2C(=O)O)NC1=O (stereo not shown) [imazapyr]
[1]; [24]
  Phytotoxicity Rating (% Crop Injury): 16.7%
[1]; [25]
  Phytotoxicity Rating (% Crop Injury): 20.0%
[2]; [24]
  Phytotoxicity Rating (% Crop Injury): 3.3%
[2]; [25]
  Phytotoxicity Rating (% Crop Injury): 0.0%
[3]; [24]
  Phytotoxicity Rating (% Crop Injury): 3.3%
[3]; [25]
  Phytotoxicity Rating (% Crop Injury): 0.0%
[4]; [24]
  Phytotoxicity Rating (% Crop Injury): 5.0%
[4]; [25]
  Phytotoxicity Rating (% Crop Injury): 1.7%
[5]; [24]
  Phytotoxicity Rating (% Crop Injury): 5.0%
[5]; [25]
  Phytotoxicity Rating (% Crop Injury): 1.7%
[6]; [24]
  Phytotoxicity Rating (% Crop Injury): 8.3%
[6]; [25]
  Phytotoxicity Rating (% Crop Injury): 3.3%
[7]; [24]
  Phytotoxicity Rating (% Crop Injury): 8.3%
[7]; [25]
  Phytotoxicity Rating (% Crop Injury): 21.7%
[8]; [24]
  Phytotoxicity Rating (% Crop Injury): 10.0%
[8]; [25]
  Phytotoxicity Rating (% Crop Injury): 23.3%
[9]; [24]
  Phytotoxicity Rating (% Crop Injury): 35.0%
[9]; [25]
  Phytotoxicity Rating (% Crop Injury): 43.3%
[10]; [24]
  Phytotoxicity Rating (% Crop Injury): 11.7%
[10]; [25]
  Phytotoxicity Rating (% Crop Injury): 6.7%
[11]; [24]
  Phytotoxicity Rating (% Crop Injury): 8.3%
[11]; [25]
  Phytotoxicity Rating (% Crop Injury): 3.3%
[12]; [24]
  Phytotoxicity Rating (% Crop Injury): 21.7%
[12]; [25]
  Phytotoxicity Rating (% Crop Injury): 36.7%
[13]; [24]
  Phytotoxicity Rating (% Crop Injury): 13.3%
[13]; [25]
  Phytotoxicity Rating (% Crop Injury): 11.7%
[14]; [24]
  Phytotoxicity Rating (% Crop Injury): 8.3%
[14]; [25]
  Phytotoxicity Rating (% Crop Injury): 5.0%
[15]
  AHAS activity, % of untreated control: 64%
[16]
  AHAS activity, % of untreated control: 60%
[17]
  AHAS activity, % of untreated control: 42%
